In one assay the test system is Zymoseptoria tritici. In words: Leaf blotch of wheat (SEPTTR) disease control on wheat seedlings. The class given is in vivo. Particulars: for LV activity at 125.1 g/H SEPTTR 1DP (disease control rating) / LV activity at 125.1 g/H SEPTTR 3DC (disease control rating) / SEPTTR 1DP, LV activity at 125.1 g/H (% Control rating) / SEPTTR 3DC, LV activity at 125.1 g/H (% Control rating): low volume application; for SEPTTR 1DP disease control rating, HV activity / SEPTTR 3DC disease control rating, HV activity: HV application at 100 ppm. More on the design: key to SEPTTR 1DP, HV activity at 100 ppm (% control rating) / SEPTTR 3DC, HV activity at 100 ppm (% control rating) / SEPTTR disease control, 1DP / SEPTTR disease control, 3DC / SEPTTR 1DP disease control rating, HV activity / SEPTTR 3DC disease control rating, HV activity / SEPTTR 3DC, LV activity at 125.1 g/H (% Control rating) / SEPTTR 1DP, LV activity at 125.1 g/H (% Control rating) / SEPTTR 1DP disease control rating, LV activity at 125.1 g/H / SEPTTR 3DC disease control rating, LV activity at 125.1 g/H / SEPTTR 3DC disease control rating, HV activity at 100 ppm / SEPTTR 1DP disease control rating, HV activity at 100 ppm / HV activity at 100 ppm SEPTTR 3DC (disease control rating) / HV activity at 100 ppm SEPTTR 1DP (disease control rating) / LV activity at 125.1 g/H SEPTTR 1DP (disease control rating) / LV activity at 125.1 g/H SEPTTR 3DC (disease control rating): A: > 80; B: ≤ 80; C: Not Tested; D: No Activity Observed in the Reported Assay.

The test system of a further assay is Puccinia triticina. The assay can be described thus: Wheat brown rust (PUCCRT) disease control on wheat seedlings. Particulars: for LV activity at 125.1 g/H PUCCRT 1DP (disease control rating) / LV activity at 125.1 g/H PUCCRT 3DC (disease control rating) / PUCCRT 1DP, LV activity at 125.1 g/H (% Control rating) / PUCCRT 3DC, LV activity at 125.1 g/H (% Control rating): low volume application; for PUCCRT 1DP disease control rating, HV activity / PUCCRT 3DC disease control rating, HV activity: HV application at 100 ppm. Set-up: key to PUCCRT 3DC, HV activity at 100 ppm (% control rating) / PUCCRT disease control, 3DC / PUCCRT 1DP disease control rating, HV activity / PUCCRT 3DC disease control rating, HV activity / PUCCRT 3DC, LV activity at 125.1 g/H (% Control rating) / PUCCRT 1DP, LV activity at 125.1 g/H (% Control rating) / PUCCRT 3DC disease control rating, LV activity at 125.1 g/H / PUCCRT 1DP disease control rating, LV activity at 125.1 g/H / PUCCRT 3DC disease control rating, HV activity at 100 ppm / PUCCRT 1DP disease control rating, HV activity at 100 ppm / HV activity at 100 ppm PUCCRT 3DC (disease control rating) / LV activity at 125.1 g/H PUCCRT 1DP (disease control rating) / LV activity at 125.1 g/H PUCCRT 3DC (disease control rating): A: > 80; B: ≤ 80; C: Not Tested; D: No Activity Observed in the Reported Assay. The class given is in vivo.

Where [1] appears, read: 1 Day Protectant, wheat leaf blotch.
[2] abbreviates: 3 Day Curative, wheat leaf blotch.
[3] abbreviates: 1 Day Protectant, wheat brown rust.
Setting [4] is: 3 Day Curative, wheat brown rust.

SMILES strings stand for the structures.

These results are taken from patent US20180000085A1, “USE OF PICOLINAMIDE COMPOUNDS WITH FUNGICIDAL ACTIVITY” (DOW AGROSCIENCES LLC, priority 2014, published 2018).

With `COc1ccnc(C(=O)NC(C)C(=O)OC(C(C)C)C(Oc2ccccc2)C(C)C)c1OCOC(C)=O` (centres unmarked) [Cmpd 1094], in the assay on Zymoseptoria tritici (setting [1]), the “LV activity at 125.1 g/H SEPTTR 1DP (disease control rating)” value (from here on “LV activity at 125.1 g/H SEPTTR 1DP”) is on record as “D”. In the assay on Zymoseptoria tritici (setting [2]), the “LV activity at 125.1 g/H SEPTTR 3DC (disease control rating)” value (from here on “LV activity at 125.1 g/H SEPTTR 3DC”) is “D”. The “LV activity at 125.1 g/H PUCCRT 1DP (disease control rating)” value (from here on “LV activity at 125.1 g/H PUCCRT 1DP”) in the assay with Puccinia triticina (setting [3]) is on record as “D”. Moreover, the “LV activity at 125.1 g/H PUCCRT 3DC (disease control rating)” value (from here on “LV activity at 125.1 g/H PUCCRT 3DC”) in the assay on Puccinia triticina (setting [4]) was “D”.
As to `C=CC(OCCC)C(Oc1ccccc1)C(C)OC(=O)C(C)NC(=O)c1nccc(OC)c1OC(C)=O` (centres unmarked) [Cmpd 456], the “SEPTTR 1DP disease control rating, HV activity” value in the assay with Zymoseptoria tritici (setting [1]) is “A (> 80)”. Moreover, in the assay with Zymoseptoria tritici (setting [2]), the “SEPTTR 3DC disease control rating, HV activity” value is on record as “A (> 80)”. For the same compound, the “SEPTTR 1DP disease control rating, LV activity” value in the assay with Zymoseptoria tritici (Low volume application at 125.1 g/H, 1 Day Protectant, wheat leaf blotch) is “A (> 80)”. Besides, the “SEPTTR 3DC disease control rating, LV activity” value in the assay on Zymoseptoria tritici (Low volume application at 125.1 g/H, 3 Day Curative, wheat leaf blotch) was “A (> 80)”. Further, the “PUCCRT 1DP disease control rating, HV activity” value in the assay on Puccinia triticina (setting [3]) was “A (> 80)”. Also, in the assay with Puccinia triticina (setting [4]), the “PUCCRT 3DC disease control rating, HV activity” value is recorded as “A (> 80)”. Besides, the “PUCCRT 1DP disease control rating, LV activity” value with Puccinia triticina (Low volume application at 125.1 g/H, 1 Day Protectant, wheat brown rust) is “A (> 80)”. Further, the “PUCCRT 3DC disease control rating, LV activity” value in the assay with Puccinia triticina (Low volume application at 125.1 g/H, 3 Day Curative, wheat brown rust) is “A (> 80)”.
As for `CCC(CC)[C@@H](Oc1ccccc1Cl)[C@H](C)OC(=O)[C@@H](NC(=O)c1nccc(OC)c1O)C(C)C` [Cmpd 411], in the assay on Zymoseptoria tritici (setting [1]), the “SEPTTR 1DP disease control rating, HV activity” value is listed as “B (≤ 80)”. In the assay on Zymoseptoria tritici (setting [2]), the “SEPTTR 3DC disease control rating, HV activity” value was “B (≤ 80)”. Besides, the “PUCCRT 1DP disease control rating, HV activity” value with Puccinia triticina (setting [3]) is “A (> 80)”. Moreover, the “PUCCRT 3DC disease control rating, HV activity” value with Puccinia triticina (setting [4]) is reported as “D”.
Consider `CCCOCC(C)OC(=O)C(C)NC(=O)c1nccc(OC)c1OCOC(C)=O` (centres unmarked) [Cmpd 522], for which the “SEPTTR 1DP, LV activity at 125.1 g/H (% Control rating)” value in the assay on Zymoseptoria tritici (1 Day Protectant) is listed as “B (≤ 80)”. For the same compound, in the assay with Zymoseptoria tritici (3 Day Curative), the “SEPTTR 3DC, LV activity at 125.1 g/H (% Control rating)” value was “B (≤ 80)”. Besides, the “PUCCRT 1DP, LV activity at 125.1 g/H (% Control rating)” value in the assay on Puccinia triticina (1 Day Protectant) is listed as “D”. The “PUCCRT 3DC, LV activity at 125.1 g/H (% Control rating)” value in the assay with Puccinia triticina (3 Day Curative) is on record as “D”.
For `COc1ccnc(C(=O)N[C@@H](C)C(=O)O[C@@H](C)[C@@H](CC(C)C)OCC2CC2)c1O` [Cmpd 1045], the “HV activity at 100 ppm SEPTTR 1DP (disease control rating)” value in the assay on Zymoseptoria tritici (HV application, 100 ppm, 1 Day Protectant, wheat leaf blotch) is “D”. For the same compound, the “HV activity at 100 ppm SEPTTR 3DC (disease control rating)” value with Zymoseptoria tritici (HV application, 100 ppm, 3 Day Curative, wheat leaf blotch) is “B (≤ 80)”. In addition, the “HV activity at 100 ppm PUCCRT 1DP (disease control rating)” value in the assay with Puccinia triticina (HV application, 100 ppm, 1 Day Protectant, wheat brown rust) is given as “A (> 80)”. In addition, the “HV activity at 100 ppm PUCCRT 3DC (disease control rating)” value in the assay on Puccinia triticina (HV application, 100 ppm, 3 Day Curative, wheat brown rust) is on record as “A (> 80)”.
Take `C=CC[C@@H](Oc1cccc(Cl)c1)[C@H](C)OC(=O)[C@H](C)NC(=O)c1nccc(OC)c1OC(C)=O` [Cmpd 1079]: the “LV activity at 125.1 g/H SEPTTR 1DP” value with Zymoseptoria tritici (setting [1]) is “B (≤ 80)”. The “LV activity at 125.1 g/H SEPTTR 3DC” value in the assay with Zymoseptoria tritici (setting [2]) is listed as “B (≤ 80)”. In the assay with Puccinia triticina (setting [3]), the “LV activity at 125.1 g/H PUCCRT 1DP” value is on record as “A (> 80)”. Also, the “LV activity at 125.1 g/H PUCCRT 3DC” value in the assay on Puccinia triticina (setting [4]) was “A (> 80)”.
`COc1ccnc(C(=O)NC(C)C(=O)OC(C)C(Oc2ccc(-c3ccccc3)cc2)C(C)C)c1O` (centres unmarked) [Cmpd 388]: the “SEPTTR 1DP disease control rating, HV activity” value in the assay with Zymoseptoria tritici (setting [1]) is on record as “A (> 80)”. Also, the “SEPTTR 3DC disease control rating, HV activity” value with Zymoseptoria tritici (setting [2]) is listed as “B (≤ 80)”. In addition, in the assay with Puccinia triticina (setting [3]), the “PUCCRT 1DP disease control rating, HV activity” value is given as “A (> 80)”. In addition, the “PUCCRT 3DC disease control rating, HV activity” value in the assay with Puccinia triticina (setting [4]) is “B (≤ 80)”.
Consider `CCC[C@@H](Oc1cccc(Cl)c1)[C@H](C)OC(=O)[C@H](C)NC(=O)c1nccc(OC)c1OC(C)=O` [Cmpd 1056], for which, in the assay on Zymoseptoria tritici (setting [1]), the “LV activity at 125.1 g/H SEPTTR 1DP” value is “A (> 80)”. Besides, in the assay on Zymoseptoria tritici (setting [2]), the “LV activity at 125.1 g/H SEPTTR 3DC” value is listed as “A (> 80)”. In the assay on Puccinia triticina (setting [3]), the “LV activity at 125.1 g/H PUCCRT 1DP” value is “A (> 80)”. The “LV activity at 125.1 g/H PUCCRT 3DC” value in the assay on Puccinia triticina (setting [4]) is on record as “A (> 80)”.
`CCC(CC)[C@@H](Oc1cc(F)cc(Cl)c1)[C@H](C)OC(=O)[C@@H](NC(=O)c1nccc(OC)c1OCOC(C)=O)C(C)C` [Cmpd 651]: the “SEPTTR 1DP, LV activity at 125.1 g/H (% Control rating)” value in the assay with Zymoseptoria tritici (1 Day Protectant) is reported as “A (> 80)”. In addition, the “SEPTTR 3DC, LV activity at 125.1 g/H (% Control rating)” value with Zymoseptoria tritici (3 Day Curative) is given as “A (> 80)”. Besides, the “PUCCRT 1DP, LV activity at 125.1 g/H (% Control rating)” value in the assay with Puccinia triticina (1 Day Protectant) was “A (> 80)”. Further, the “PUCCRT 3DC, LV activity at 125.1 g/H (% Control rating)” value with Puccinia triticina (3 Day Curative) is “B (≤ 80)”.
Turning to `CCC(CC)[C@@H](Oc1cccc(Cl)c1)[C@H](C)OC(=O)[C@@H](NC(=O)c1nccc(OC)c1O)C(C)C` [Cmpd 406], the “SEPTTR 1DP disease control rating, HV activity” value with Zymoseptoria tritici (setting [1]) was “B (≤ 80)”. Moreover, the “SEPTTR 3DC disease control rating, HV activity” value in the assay with Zymoseptoria tritici (setting [2]) is listed as “B (≤ 80)”. Besides, the “PUCCRT 1DP disease control rating, HV activity” value in the assay with Puccinia triticina (setting [3]) is reported as “B (≤ 80)”. For the same compound, the “PUCCRT 3DC disease control rating, HV activity” value in the assay with Puccinia triticina (setting [4]) is listed as “B (≤ 80)”.
